Experimental data as given in US20230113609A1, “SSTR5 ANTAGONISTS” (Kallyope, Inc., priority 2019, published 2023).

Target: T1, human SSTR5 (Homo sapiens, UniProt P35346)
T1 construct: expressed in transfected cells
Test: Inositol phosphate accumulation assay (IP1 HTRF, antagonist mode)
Format: cell-based
Conditions: CHO-K1 cells co-expressing human SSTR5 with Gqi5, SST28 agonist at concentration generating 90% of full activation
Excerpt: CHO-K1 cells stably co-expressing human SSTR5 with Gqi5 were developed using Jump-In technology from Thermo-Fisher. Gqi5 is the mouse G alpha q protein, that was modified to interact with Gi-coupled GPCRs as described previously (Coward, P.; Chan, S. D.; Wada, H. G.; Humphries, G. M.; Conklin, B. R. Chimeric G proteins Allow a High-Throughput Signaling Assay of Gi-Coupled Receptors. Anal Biochem. 1999, 270(2),242-248).
Co-expression of Gqi5 with SSTR5 allowed monitoring of SSTR5 activity by following IP1 accumulation. The assay was performed in a 384-well plate format using the IP1 assay kit from Cis-Bio in an antagonist mode, i.e., pre-incubation with antagonist following by receptor activation by agonist at a concentration generating 90% of full activation. Frozen cells expressing human SSTR5 were thawed, washed, and then plated in DMEM supplemented with 10% FBS and non-essential amino acids. 40 μL of 2.5×10^5 cells/mL were plated on a Poly D-Lysine coated 384-well white plate. The cells were then incubated for 16 hr. at 37° C/5% CO2. After 16 hour the medium was removed, and 10 μL of stimulation buffer was added to the cells. Test compounds were dissolved in DMSO at concentrations 2000-fold that of the final assay concentrations. 7.5 nLcompound solutions were transferred to the cell plates using a Labcyte Echo® acoustic liquid handler. The plates were then incubated for 15 minutes at 37° C/5%CO2. After the first incubation, 5 μL of 30 nM SST28 were added to the cells, and the cells were incubated for 90 minutes at 37° C/5%CO2. 5 μL of detection buffer (prepared as described in the IP-1 kit) was added to each well, and the plates were incubated at RT for 1 hour.
TR-FRET was measured using a ClarioSTAR plate reader, calculating the ratio between emissions at 665 nm and 620 nm (HTRF ratio). The HTRF ratio for positive (Max) and negative (Min) controls were used to normalize HTRF data and generate values for % inhibition. IC50 and maximal inhibition values were determined using a standard 4-parameter fit.

T1 sequence (P35346 whole entry): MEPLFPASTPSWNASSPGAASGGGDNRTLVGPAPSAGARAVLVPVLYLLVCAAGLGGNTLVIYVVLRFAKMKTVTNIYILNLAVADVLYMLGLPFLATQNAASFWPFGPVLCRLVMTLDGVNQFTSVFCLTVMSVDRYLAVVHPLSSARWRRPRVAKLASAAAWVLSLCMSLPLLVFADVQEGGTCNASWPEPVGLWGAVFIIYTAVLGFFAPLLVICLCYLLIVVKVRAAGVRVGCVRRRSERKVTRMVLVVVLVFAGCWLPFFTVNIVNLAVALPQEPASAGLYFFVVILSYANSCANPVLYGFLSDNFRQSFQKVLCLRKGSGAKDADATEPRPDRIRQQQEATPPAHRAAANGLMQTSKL

Row | IC50 [nM] | SMILES
1 | ≤ 100 | CCOc1cc(CN2CCC3(CC2)CN(c2ccc(C(=O)NCCCS(=O)(=O)O)cc2)C(=O)O3)cc(OCC)c1-c1ccc(F)cc1 [Example 11, 3-(4-(8-((2,6-diethoxy-4′-fluoro-[1,1′-biphenyl]-4-yl)methyl)-2-oxo-1-oxa-3,8-diazaspiro[4.5]decan-3-yl)benzamido)propane-1-sulfonic acid]
2 | 100 to 1000 | CCOc1cc(-c2nc(C)no2)c(C2CC2)cc1CN1CCC2(CC1)CN(c1ccc(C(=O)NCCOCCO)cc1)C(=O)N2 [Example 67, 4-(8-(5-cyclopropyl-2-ethoxy-4-(3-methyl-1,2,4-oxadiazol-5-yl)benzyl)-2-oxo-1,3,8-triazaspiro[4.5]decan-3-yl)-N-(2-(2-hydroxyethoxy)ethyl)benzamide]
3 | ≤ 100 | CCOc1cc(-c2ccc(F)cc2)c(C2CC2)cc1CN1CCC2(CC1)CN(c1ccc(C(=O)NCCOCCO)cc1)C(=O)O2 [Example 61, 4-(8-((2-cyclopropyl-5-ethoxy-4′-fluoro-[1,1′-biphenyl]-4-yl)methyl)-2-oxo-1-oxa-3,8-diazaspiro [4.5]decan-3-yl)-N-(2-(2-hydroxyethoxy)ethyl)benzamide]
4 | ≤ 100 | CCOc1cc(-c2ccc(F)cc2)c(C2CC2)cc1CN1CCC2(CC1)CN(c1ccc(S(=O)(=O)NCCOCCO)cc1)C(=O)N2 [compound 85, 4-(8-((2-cyclopropyl-5-ethoxy-4′-fluoro-[1,1′-biphenyl]-4-yl)methyl)-2-oxo-1,3,8-triazaspiro[4.5]decan-3-yl)-N-(2-(2-hydroxyethoxy)ethyl)benzenesulfonamide]
5 | 100 to 1000 | CCOc1cc(C(=O)OC)c(C2CC2)cc1CN1CCC2(CC1)CC(=O)N(c1ccc(C(=O)NCCCNC(=N)N)cc1)C2 [Example 55, methyl 2-cyclopropyl-5-ethoxy-4-((2-(4-((3-guanidinopropyl)carbamoyl)phenyl)-3-oxo-2,8-diazaspiro [4.5]decan-8-yl)methyl)benzoate]
6 | 100 to 1000 | CCOc1cc(C(=O)OC)c(C2CC2)cc1CN1CCC2(CC1)CC(=O)N(c1ccc(C(=O)NCCCCS(N)(=O)=O)cc1)C2 [Example 51, methyl 2-cyclopropyl-5-ethoxy-4-((3-oxo-2-(4-((4-sulfamoylbutyl)carbamoyl)phenyl)-2,8-diazaspiro[4.5]decan-8-yl)methyl)benzoate]
7 | ≤ 100 | CCOc1cc(-c2ccc(F)cc2)c(C2CC2)cc1CN1CCC2(CC1)CN(c1ccc(S(=O)(=O)NCCOCCOCCO)cc1)C(=O)O2 [Example 83, 4-(8-((2-cyclopropyl-5-ethoxy-4′-fluoro-[1,1′-biphenyl]-4-yl)methyl)-2-oxo-1-oxa-3,8-diazaspiro[4.5]decan-3-yl)-N-(2-(2-(2-hydroxyethoxy)ethoxy)ethyl)benzenesulfonamide]
8 | > 5000 | CCOc1cc(C(=O)OC)c(C2CC2)cc1CN1CCC2(CC1)CN(c1ccc(C(=O)NCCCNC(N)=O)cc1)C(=O)N2 [Example 77, methyl 2-cyclopropyl-5-ethoxy-4-((2-oxo-3-(4-((3-ureidopropyl)carbamoyl)phenyl)-1,3,8-triazaspiro[4.5]decan-8-yl)methyl)benzoate]
9 | 100 to 1000 | CCOc1cc(-c2ccc(F)cn2)c(C2CC2)cc1CN1CCC2(CC1)CN([C@H]1CC[C@@](C)(C(=O)NCCCS(=O)(=O)O)CC1)C(=O)O2 [compound 88]
10 | 100 to 1000 | CCOc1cc(C(=O)OC)c(C2CC2)cc1CN1CCC2(CC1)CC(=O)N(c1ccc(C(=O)N3CCC(CS(N)(=O)=O)CC3)cc1)C2 [Example 53, methyl 2-cyclopropyl-5-ethoxy-4-((3-oxo-2-(4-(4-(sulfamoylmethyl)piperidine-1-carbonyl)phenyl)-2,8-diazaspiro[4.5]decan-8-yl)methyl)benzoate]
11 | > 5000 | CCOc1cc(C(=O)OC)c(C2CC2)cc1CN1CCC2(CC1)CC(=O)N(c1ccc(C(=O)NCCNC(=O)NC(CO)CO)cc1)C2 [Example 16, methyl 2-cyclopropyl-4-((2-(4-((2-(3-(1,3-dihydroxypropan-2-yl)ureido)ethyl)carbamoyl)phenyl)-3-oxo-2,8-diazaspiro[4.5]decan-8-yl)methyl)-5-ethoxybenzoate]
12 | 100 to 1000 | CCOc1cc(CN2CCC3(CC2)CN(c2ccc(C(=O)NC[C@H](O)[C@@H](O)[C@H](O)[C@H](O)COC(=O)CCC(=O)O)cc2)C(=O)O3)cc(OCC)c1-c1ccc(F)cc1 [Example 2, 4-(((2R,3R,4R,5S)-6-(4-(8-((2,6-diethoxy-4′-fluoro-[1,1′-biphenyl]-4-yl)methyl)-2-oxo-1-oxa-3,8-diazaspiro[4.5]decan-3-yl)benzamido)-2,3,4,5-tetrahydroxyhexyl)oxy)-4-oxobutanoic acid]
13 | 100 to 1000 | CCOc1cc(C(=O)OC)c(C2CC2)cc1CN1CCC2(CC1)CC(=O)N(c1ccc(C(=O)NCCN3CCNC3=O)cc1)C2 [Example 40, methyl 2-cyclopropyl-5-ethoxy-4-((3-oxo-2-(4-((2-(2-oxoimidazolidin-1-yl)ethyl)carbamoyl)phenyl)-2,8-diazaspiro[4.5]decan-8-yl)methyl)benzoate]
14 | 100 to 1000 | CCOc1cc(CN2CCC3(CC2)CN(c2ccc(C(=O)NC[C@H](O)[C@@H](O)[C@H](O)[C@H](O)CO)cc2)C(=O)O3)cc(OCC)c1-c1ccc(F)cc1 [Example 4, 4-(8-((2,6-diethoxy-4′-fluoro-[1,1′-biphenyl]-4-yl)methyl)-2-oxo-1-oxa-3,8-diazaspiro[4.5]decan-3-yl)-N-((2S,3R,4R,5R)-2,3,4,5,6-pentahydroxyhexyl)benzamide]
15 | 100 to 1000 | CCOc1cc(-c2nc(C)no2)c(C2CC2)cc1CN1CCC2(CC1)CN(c1ccc(C(=O)NCCCS(=O)(=O)O)cc1)C(=O)N2 [Example 68, 3-(4-(8-(5-cyclopropyl-2-ethoxy-4-(3-methyl-1,2,4-oxadiazol-5-yl)benzyl)-2-oxo-1,3,8-triazaspiro[4.5]decan-3-yl)benzamido)propane-1-sulfonic acid]
16 | 100 to 1000 | CCOc1cc(C(=O)OC)c(C2CC2)cc1CN1CCC2(CC1)CC(=O)N(c1ccc(C(=O)NCCCNC(N)=O)cc1)C2 [Example 39, methyl 2-cyclopropyl-5-ethoxy-4-((3-oxo-2-(4-((3-ureidopropyl)carbamoyl)phenyl)-2,8-diazaspiro[4.5]decan-8-yl)methyl)benzoate]
17 | ≤ 100 | CCOc1cc(-c2ccc(F)cc2)c(C2CC2)cc1CN1CCC2(CC1)CN(c1ccc(C(=O)NCCOCCO)cc1)C(=O)N2 [compound 65, 4-(8-((2-cyclopropyl-5-ethoxy-4′-fluoro-[1,1′-biphenyl]-4-yl)methyl)-2-oxo-1,3,8-triazaspiro[4.5]decan-3-yl)-N-(2-(2-hydroxyethoxy)ethyl)benzamide]
18 | > 5000 | CCOc1cc(C(=O)OC)c(C2CC2)cc1CN1CCC2(CC1)CC(=O)N(c1ccc(C(=O)N(C)CCCC(=O)O)cc1)C2 [Example 41, 4-(4-(8-(5-cyclopropyl-2-ethoxy-4-(methoxycarbonyl)benzyl)-3-oxo-2,8-diazaspiro[4.5]decan-2-yl)-N-methylbenzamido)butanoic acid]
19 | 100 to 1000 | CCOc1cc(CN2CCC3(CC2)CN(c2ccc(C(=O)NCCCC(=O)NCCO)cc2)C(=O)O3)cc(OCC)c1-c1ccc(F)cc1 [compound 1, 4-(8-((2,6-diethoxy-4′-fluoro-[1,1′-biphenyl]-4-yl)methyl)-2-oxo-1-oxa-3,8-diazaspiro [4.5]decan-3-yl)-N-(4-((2-hydroxyethyl)amino)-4-oxobutyl)benzamide]
20 | > 5000 | CCOc1cc(C(=O)OC)c(C2CC2)cc1CN1CCC2(CC1)CN(c1ccc(C(=O)NCCCS(=O)(=O)O)cc1)C(=O)N2 [Example 78, 3-(4-(8-(5-cyclopropyl-2-ethoxy-4-(methoxycarbonyl)benzyl)-2-oxo-1,3,8-triazaspiro[4.5]decan-3-yl)benzamido)propane-1-sulfonic acid]
21 | > 5000 | CCOc1cc(C(=O)OC)c(C2CC2)cc1CN1CCC2(CC1)CC(=O)N(c1ccc(C(=O)N3C[C@H](O)[C@@H](O)C3)cc1)C2 [Example 43, methyl 2-cyclopropyl-4-((2-(4-((3S,4S)-3,4-dihydroxypyrrolidine-1-caibonyl)phenyl)-3-oxo-2,8-diazaspiro[4.5]decan-8-yl)methyl)-5-ethoxy benzoate]
22 | 100 to 1000 | CCOc1cc(C(=O)OC)c(C2CC2)cc1CN1CCC2(CC1)CC(=O)N(c1ccc(C(=O)NC(CO)CO)cc1)C2 [Example 19, methyl 2-cyclopropyl-4-((2-(4-((1,3-dihydroxypropan-2-yl)carbamoyl)phenyl)-3-oxo-2.8-diazaspiro[4.5]decan-8-yl)methyl)-5-ethoxybenzoate]

Row | SMILES | IC50 [nM]
23 | CCOc1cc(C(=O)OC)c(C2CC2)cc1CN1CCN(C(=O)Oc2cccc(C(=O)NC[C@H](O)[C@@H](O)[C@H](O)[C@H](O)CO)c2)CC1 [Example 98] | 100 to 1000
24 | CCOc1cc(-c2ccc(F)cc2)c(C2CC2)cc1CN1CCN(C(=O)Oc2ccc(C(=O)NC[C@H](O)[C@@H](O)[C@H](O)[C@H](O)CO)cc2)CC1 [compound 94] | ≤ 100
